Assay results published in paper PMC8899474, “Discovery and Characterization of the Key Constituents in Ginkgo biloba Leaf Extract With Potent Inhibitory Effects on Human UDP-Glucuronosyltransferase 1A1” (Frontiers in Pharmacology, 2022).

What was measured:
[1] = molecular target: T1, hUGT1A1 (Homo sapiens, UniProt P22309); experiment: UGT1A1 inhibition assay and inhibition kinetics in human liver microsomes (NHPN-O-glucuronidation); format: biochemical; settings: NHPN-O-glucuronidation in HLM
T1 sequence (P22309 26-533): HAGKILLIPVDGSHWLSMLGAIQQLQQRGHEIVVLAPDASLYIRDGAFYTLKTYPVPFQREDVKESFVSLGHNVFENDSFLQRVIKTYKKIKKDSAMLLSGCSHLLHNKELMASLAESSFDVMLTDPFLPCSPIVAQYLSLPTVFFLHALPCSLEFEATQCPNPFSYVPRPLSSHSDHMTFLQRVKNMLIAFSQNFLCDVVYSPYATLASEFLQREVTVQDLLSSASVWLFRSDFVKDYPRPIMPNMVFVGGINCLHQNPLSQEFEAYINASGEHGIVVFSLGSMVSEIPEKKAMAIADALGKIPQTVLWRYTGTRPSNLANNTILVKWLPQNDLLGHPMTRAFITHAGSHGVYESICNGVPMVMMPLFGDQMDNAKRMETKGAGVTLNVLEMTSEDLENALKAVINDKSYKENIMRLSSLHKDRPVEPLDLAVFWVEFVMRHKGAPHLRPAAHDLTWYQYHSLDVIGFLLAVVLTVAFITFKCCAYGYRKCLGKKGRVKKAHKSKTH

[2] = molecular target: T1, hUGT1A1; experiment: UGT1A1 inhibition assay in living HeLa-UGT1A1 cells (NHPN-O-glucuronidation, LC-FD); format: cell-based; set-up: expressed in transfected cells; host or cells: HeLa cells, stably transduced with lentivirus (HeLa-UGT1A1); settings: for inhibition of intracellular hUGT1A1: high concentration (100 μM), HeLa-UGT1A1 cells
Method: A RF-20A FD detector coupled UFLC system (Shimadzu, Kyoto, Japan), equipped with a DGU-20A5R vacuum degasser, two LC-20ADXR pumps, a SIL-20ACXR autosampler and a CTO-20A column oven, was used to quantify NHPN and NHPNG. Chromatographic separation of analytes was carried out on a shim-pack Acchrom HC-C18 analytical column (2.0 × 150 mm, 4.6 μm particle size), while the column temperature was kept at 40°C. The flow rate was kept at 0.5 ml/min. The mobile phase consisted of acetonitrile (A) and water containing 0.2% formic acid (B). The gradient of the mobile phase was as follows: 0–0.5 min, 80–60% B; 0.5–3.5 min, 60–5% B; 3.5–5 min, 5% B; 5–7.5 min, equilibration with 80% B. The excitation wavelength and the emission wavelength were set at 370 and 520 nm, respectively for detection.
The inhibitory effects of herbal products and chemical constituents of GBL extract on UGT1A1 were investigated in living HeLa-UGT1A1 cells by using a specific fluorescent substrate, NHPN, as a probe. HeLa-UGT1A1 cells were cultured at 37°C in 5% CO2 in Modified Eagle’s Medium (MEM) containing 0.1% antibiotic-antimycoticmix, supplemented with 10% fetal bovine serum (FBS). HeLa-UGT1A1 cells were seeded in 96-well plates and cultured for 24 h. The cells were incubated in the medium containing different kinds of herbal products (final concentration, 10 μg/ml) or chemical constituents of GBL extract (diluted to different concentration by DMSO with the final concentration of 1% DMSO in each incubation) for 60 min at 37°C under 5% CO2, and co-incubated with NHPN (final concentration, 50 μM) for another 60 min. […] The validation data for this cell-based flourescence assay can be found in our previous publication ([Zhu et al., 2020]).

[3] = molecular target: T1, hUGT1A1; experiment: UGT1A1 inhibition assay and inhibition kinetics in human liver microsomes (NHPN-O-glucuronidation); format: biochemical; settings: NHPN-O-glucuronidation in HLM; for Ki: second plot of Lineweaver-Burk slopes
Method: A set of incubations by changing both the fluorescent substrate concentration and the inhibitor concentration were performed to determine the inhibition kinetic modes and the corresponding inhibition constant (K i ) values. The incubation and analytical sample preparation were conducted as described previously. Goodness-of-fit parameter and Akaike’s Information Criterion (AIC) were employed to select the most appropriate inhibition kinetic modes from the following three inhibition modes including competitive inhibition Eq. 1, noncompetitive inhibition Eq. 2, or mixed inhibition Eq. 3, V=Vmax×[S]/Km×(1+[I]/Ki)+[S] (1) V=Vmax×[S]/(Km+[S])×(1+[I]/Ki) (2) V=Vmax×[S]/Km×(1+[I]/Ki)+[S]×(1+[I]/αKi) (3)
Here, V is the turnover of the glucuronidation reaction; V max is the maximum velocity; S and I are the substrate and inhibitor concentrations, respectively; K m is the Michaelis constant (substrate concentration at 0.5 V max ); K i is the inhibition constant that describes the affinity of the inhibitor towards hUGT1A1. The corresponding K i value of each tested inhibitor is calculated by utilizing the slopes of second plot from Lineweaver-Burk plot versus inhibitor concentrations.

[4] = molecular target: T1, hUGT1A1; experiment: UGT1A1 inhibition assay with recombinant UGT1A1 (NHPN-O-glucuronidation)
Method: NHPN was used for evaluating the inhibitory effects of GBL extract on HLM. A typical incubation mixture with a total volume of 200 μl consisted of 50 mM Tris-HCl (pH = 7.4), 5 mM MgCl2, 2 mM UDPGA, NHPN (diluted by DMSO, 5 μM) and the enzymes. […] The final concentration of DMSO in the incubation mixture was less than 1%. […] A concentration of 5 μg/ml was used when recombinant UGT1A1 was the enzyme source. After pre-incubation for 3 min at 37°C, UDPGA was added to the incubation mixture to initiate the reaction. After 60 min incubation at 37°C, the reaction was terminated by adding 200 μl ice-cold acetonitrile, and the incubation mixture was kept on ice. After centrifugation at 20,000×g for 20 min at 4°C, 5 μl aliquots of the supernatant was taken for LC-FD analysis.
The residual activity of hUGT1A1 was determined as follows: Residual activity (%) = (the fluorescence intensity of NHPNG generated in the incubations with inhibitor)/(the fluorescence intensity of NHPNG generated in the incubations without inhibitor) × 100%. A set of incubations with the same fluorescent substrate concentration and different inhibitor concentrations were performed to determine the half maximal inhibition concentration (IC50).

[5] = hUGT1A1-catalyzed NHPN-O-glucuronidation in HeLa-UGT1A1 cells, read-out: IC50

Row | Molecule | IC50 [1] | IC50 [2, 5] | further results
1 | CC(C)(C)[C@]1(O)CC2OC(=O)CC23C(=O)OC2OC(=O)[C@H](O)C231 (stereo partly shown) [Bilobalide] | – | – | IC50 [2]: > 100000 nM; inhibition of intracellular hUGT1A1 [2]: did not inhibit
2 | C[C@@H]1C(=O)O[C@H]2C[C@@]34[C@H]5C[C@@H](C(C)(C)C)[C@]36[C@@H](OC(=O)[C@@H]6O)O[C@@]4(C(=O)O5)[C@]21O [Ginkgolide A] | – | > 100000 nM | inhibition of intracellular hUGT1A1 [2]: did not inhibit
3 | O=c1c(O)c(-c2ccc(O)cc2)oc2cc(O)cc(O)c12 [Kaempferol] | – | 1380 ± 190 nM | –
4 | COc1cc(-c2oc3cc(O)cc(O)c3c(=O)c2O)ccc1O [Lsorhamnetin, isorhamnetin] | – | 1680 ± 340 nM | –
5 | O=c1c(O)c(-c2cc(O)c(O)c(O)c2)oc2cc(O)cc(O)c12 [Myricetin] | – | 64600 ± 12200 nM | –
6 | O=c1c(O)c(-c2ccc(O)c(O)c2)oc2cc(O)cc(O)c12 [Quercetin] | – | 2050 ± 240 nM | –
7 | Ginkgolide B | – | – | inhibition of intracellular hUGT1A1 [2]: did not inhibit
8 | Ginkgolide C | – | – | inhibition of intracellular hUGT1A1 [2]: did not inhibit

Continued, in another order:

Row | IC50 [1] | IC50 [2, 5] | Molecule | further results
9 | 410 ± 34 nM | 3290 ± 470 nM | O=c1cc(-c2ccc(O)c(-c3c(O)cc(O)c4c(=O)cc(-c5ccc(O)cc5)oc34)c2)oc2cc(O)cc(O)c12 [Amentoflavone] | –
10 | – | 1890 ± 240 nM | O=c1cc(-c2ccc(O)cc2)oc2cc(O)cc(O)c12 [Apigenin] | –
11 | 200 ± 23 nM | 410 ± 48 nM | COc1ccc(-c2cc(=O)c3c(O)cc(O)cc3o2)cc1-c1c(O)cc(O)c2c(=O)cc(-c3ccc(O)cc3)oc12 [Bilobetin] | Inhibition mode [3]: Mixed; Ki [3]: 180 nM; IC50 [4]: 100 to 290 nM
12 | – | 1500 ± 460 nM | COc1cc(O)c2c(=O)cc(-c3ccc(O)cc3)oc2c1 [Genkwanin] | –
13 | 150 ± 14 nM | 75 ± 9 nM | COc1cc(O)c2c(=O)cc(-c3ccc(OC)c(-c4c(O)cc(O)c5c(=O)cc(-c6ccc(O)cc6)oc45)c3)oc2c1 [Ginkgetin] | Inhibition mode [3]: Mixed; Ki [3]: 70 nM; IC50 [4]: 100 to 290 nM
14 | 670 ± 85 nM | 160 ± 20 nM | COc1ccc(-c2cc(=O)c3c(O)cc(O)c(-c4cc(-c5cc(=O)c6c(O)cc(O)cc6o5)ccc4OC)c3o2)cc1 [Isoginkgetin] | Inhibition mode [3]: Mixed; Ki [3]: 740 nM; IC50 [4]: 100 to 290 nM
15 | – | 1410 ± 170 nM | O=c1cc(-c2ccc(O)c(O)c2)oc2cc(O)cc(O)c12 [Luteolin] | –
16 | 280 ± 36 nM | 110 ± 9 nM | COc1ccc(-c2cc(=O)c3c(O)cc(O)c(-c4cc(-c5cc(=O)c6c(O)cc(OC)cc6o5)ccc4OC)c3o2)cc1 [Sciadopitysin] | Inhibition mode [3]: Mixed; Ki [3]: 670 nM
